Source: ChEMBL document CHEMBL4699511, “Cedrol, a Sesquiterpene Alcohol, Enhances the Anticancer Efficacy of Temozolomide in Attenuating Drug Resistance via Regulation of the DNA Damage Response and MGMT Expression” (J Nat Prod, 2020)
Calls of active or inactive are those of the source. The rule behind the calls is not given here.

What was measured:
RG2 [1] = assay: Induction of cell cycle arrest in rat RG2 cells assessed as accumulation at S phase at 112.4 uM after 6 hrs in presence of TMZ by propidium iodide staining based flow cytometric analysis (reference value: 20.15 +/- 2.44%); format: functional
RG2 [2] = assay: Induction of cell cycle arrest in rat RG2 cells assessed as accumulation at G0/G1 phase at 112.4 uM after 24 hrs in presence of TMZ by propidium iodide staining based flow cytometric analysis (reference value: 57.81 +/- 1.9%); format: functional
RG2 [3] = assay: Synergistic cytotoxicity against rat RG2 cells assessed as combination index at 89.9 uM after 48 hrs in presence of 206 uM TMZ by MTT assay; format: functional
RG2 [4] = assay: Induction of apoptosis in rat RG2 cells assessed as phosphorylated caspace-3 expression at 112.4 uM after 48 hrs by Western blot analysis (reference value: 1); format: functional
RG2 [5] = assay: Synergistic cytotoxicity against rat RG2 cells assessed as synergistic effect index at 112.4 uM after 48 hrs in presence of 103 uM TMZ by MTT assay; format: functional
RG2 [6] = assay: Inhibition of ERK phosphorylation at Tyr204 residues in rat RG2 cells at 112.4uM after 48 hrs by Western blot analysis (reference value: 1); format: cell-based
RG2 [7] = assay: Induction of cell cycle arrest in rat RG2 cells assessed as CDK2 expression at 112.4uM after 48 hrs by Western blot analysis (reference value: 1); format: functional
RG2 [8] = assay: Synergistic cytotoxicity against rat RG2 cells assessed as combination index at 134.9 uM after 48 hrs in presence of 206 uM TMZ by MTT assay; format: functional
DBTRG-05MG [9] = assay: Induction of cell cycle arrest in human DBTRG-05MG cells assessed as accumulation at S phase at 112.4 uM after 6 hrs by propidium iodide staining based flow cytometric analysis (reference value: 22.76 +/- 1.56%); format: functional
DBTRG-05MG [10] = assay: Synergistic cytotoxicity against human DBTRG-05MG cells assessed as synergistic effect index at 89.9 uM after 48 hrs in presence of 103 uM TMZ by MTT assay; format: functional
[11] = Synergistic cytotoxicity against rat CTX TNA2 cells assessed as combination index at 112.4 uM after 48 hrs in presence of 206 uM TMZ by MTT assay; format: cell-based; conditions: ctx tna2, 48 h
[12] = target: MAP kinase p38 (Homo sapiens) (UniProt O15264+Q15759+Q16539+P53778); assay: Inhibition of p38 phosphorylation at Tyr182 residues in human DBTRG-05MG cells at 112.4uM after 48 hrs in presence of TMZ by Western blot analysis (reference value: 1); format: cell-based
[13] = Toxicity in BALB/c mouse xenografted with DBTRG-05MG cells assessed as reduction in body weight at 75 mg/kg, sc for 18 days co-treated with TMZ; format: organism-based; conditions: in vivo, 432 h, time 18 day
RG2 [14] = assay: Induction of DNA damage in rat RG2 cells at 112.4 uM after 48 hrs in presence of TMZ by p.H2A.X staining based fluorescent immunocytochemistry method; format: functional, cell-based
DBTRG-05MG [15] = assay: Induction of apoptosis in human DBTRG-05MG cells assessed as Bax expression at 112.4 uM after 48 hrs in presence of TMZ by Western blot analysis (reference value: 1); format: functional
RG2 [16] = assay: Synergistic cytotoxicity against rat RG2 cells assessed as combination index at 134.9 uM after 48 hrs in presence of 309 uM TMZ by MTT assay; format: functional
[17] = Inhibition of TMZ-induced drug resistance in rat RG2 cells assessed as CD133 expression at 112.4 uM after 48 hrs by Western blot analysis (reference value: 2.4); format: functional
RG2 [18] = assay: Induction of apoptosis in rat RG2 cells assessed as Bcl2 expression at 112.4 uM after 48 hrs by Western blot analysis (reference value: 1); format: functional
RG2 [19] = assay: Induction of cell cycle arrest in rat RG2 cells assessed as accumulation at G0/G1 phase at 112.4 uM after 12 hrs in presence of TMZ by propidium iodide staining based flow cytometric analysis (reference value: 57.81 +/- 1.9%); format: functional
DBTRG-05MG [20] = assay: Induction of apoptosis in human DBTRG-05MG cells assessed as increase in apoptotic body formation at 112.4 uM after 48 hrs by TUNEL assay; format: functional, cell-based
RG2 [21] = assay: Inhibition of JNK phosphorylation at Thr183/Tyr185 residues in rat RG2 cells at 112.4uM after 48 hrs in presence of TMZ by Western blot analysis (reference value: 1); format: cell-based
DBTRG-05MG [22] = assay: Induction of cell cycle arrest in human DBTRG-05MG cells assessed as accumulation at S phase at 112.4 uM after 48 hrs in presence of TMZ by propidium iodide staining based flow cytometric analysis (reference value: 22.76 +/- 1.56%); format: functional
DBTRG-05MG [23] = assay: Induction of cell cycle arrest in human DBTRG-05MG cells assessed as accumulation at G0/G1 phase at 112.4 uM after 48 hrs in presence of TMZ by propidium iodide staining based flow cytometric analysis (reference value: 47.16 +/- 1.55%); format: functional
RG2 [24] = assay: Induction of apoptosis in rat RG2 cells assessed as cleaved PARP expression at 112.4 uM after 48 hrs by Western blot analysis (reference value: 1); format: functional
DBTRG-05MG [25] = assay: Induction of apoptosis in human DBTRG-05MG cells assessed as cleaved caspace-9 expression at 112.4 uM after 48 hrs by Western blot analysis (reference value: 1); format: functional
DBTRG-05MG [26] = assay: Antitumour activity against human DBTRG-05MG cells xenografted in BALB/c nude mouse assessed as increase in survival time at 75 mg/kg, sc for every 2 days for 20 days and measured every 2 days; format: functional, organism-based; conditions: time 20.0 day
DBTRG-05MG [27] = assay: Induction of cell cycle arrest in human DBTRG-05MG cells assessed as CyclinD1 expression at 206 uM after 48 hrs by Western blot analysis (reference value: 1); format: functional
RG2 [28] = assay: Induction of apoptosis in rat RG2 cells assessed as cleaved PARP expression at 206 uM after 48 hrs by Western blot analysis (reference value: 1); format: functional
RG2 [29] = assay: Induction of DNA damage in rat RG2 cells assessed as ATR phosphorylation at ser428 residues at 206 uM after 48 hrs by Western blot analysis (reference value: 1); format: functional
DBTRG-05MG [30] = assay: Inhibition of JNK phosphorylation at Thr183/Tyr185 residues in human DBTRG-05MG cells at 206 uM after 48 hrs by Western blot analysis (reference value: 1); format: cell-based
DBTRG-05MG [31] = assay: Induction of cell cycle arrest in human DBTRG-05MG cells assessed as accumulation at S phase at 206 uM after 24 hrs by propidium iodide staining based flow cytometric analysis (reference value: 22.76 +/- 1.56%); format: functional
[32] = Effect on JNK expression in rat RG2 cells at 206 uM after 48 hrs by Western blot analysis (reference value: 1); format: functional
RG2 [33] = assay: Induction of apoptosis in rat RG2 cells assessed as phosphorylated caspace-9 expression at 206 uM after 48 hrs by Western blot analysis (reference value: 1); format: functional

C[C@@H]1CC[C@H]2C(C)(C)[C@H]3C[C@@]12CC[C@@]3(C)O [CEDROL]
Activity (RG2 [1]): 19.02%
Activity (RG2 [2]): 61.35%
CI (RG2 [3]): 0.98
fold change (FC) (RG2 [4]): 1.1
Activity_index (RG2 [5]): 0.83
fold change (FC) (RG2 [6]): 0.9
fold change (FC) (RG2 [7]): 0.7
CI (RG2 [8]): 0.84
Activity (DBTRG-05MG [9]): 16.38%
Activity_index (DBTRG-05MG [10]): 0.66
CI [11]: 1.17
fold change (FC) [12]: 1.2
Activity [13]: Non-Toxic
Activity (RG2 [14]): Active
fold change (FC) (DBTRG-05MG [15]): 1.7
CI (RG2 [16]): 0.92
fold change (FC) [17]: 1.3
fold change (FC) (RG2 [18]): 1.1
Activity (RG2 [19]): 61.92%
Activity (DBTRG-05MG [20]): Active
fold change (FC) (RG2 [21]): 0.6
Activity (DBTRG-05MG [22]): 20.58%
Activity (DBTRG-05MG [23]): 41.16%
fold change (FC) (RG2 [24]): 1.4
fold change (FC) (DBTRG-05MG [25]): 1.1
Activity (DBTRG-05MG [26]): Active

Cn1nnc2c(C(N)=O)ncn2c1=O [TEMOZOLOMIDE]
fold change (FC) (DBTRG-05MG [27]): 0.5
fold change (FC) (RG2 [28]): 1.5
fold change (FC) (RG2 [29]): 0.8
fold change (FC) (DBTRG-05MG [30]): 1.2
Activity (DBTRG-05MG [31]): 25.43%
fold change (FC) [32]: 1
fold change (FC) (RG2 [33]): 0.8
